Results on 44 molecules are retold here after patent US20250059174A1, “Pharmaceutical Compounds and Compositions as C-Kit Kinase Inhibitors” (Enanta Pharmaceuticals, Inc., priority 2023, published 2025).

As usually defined, the IC50 is the midpoint of a concentration-inhibition curve. What is called EC50 is the concentration at which the effect is half-maximal. Low readings indicate an effect from little substance, high ones a need for much substance.

In test [1] the target is Recombinant human c-KIT kinase (Homo sapiens (Human), UniProt P10721). Nature of the test: c-KIT kinase chemiluminescence assay (ADP-Glo). It counts as biochemical. The settings on record: ATP 50 μM. In outline: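 ADP formed by c-KIT on polyEY over 2 h at RT (after 30 min enzyme preincubation; Tris pH 7.5, MgCl2, BSA, DTT buffer) was detected by ADP-Glo luminescence. IC50 and Hill slope were fitted to control-normalized activity across compound concentrations.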
In general terms: ADP-Glo turns the ADP formed in a reaction into a luminescent signal.

The test system of test [2] is M-07e cells. Put plainly: M-07e cellular assay (SCF-mediated cell proliferation). It counts as cell-based. The settings on record: Homo sapiens, 72 hours, CellTiter Glo. The gist of the method: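 EC50 values reflect inhibition of SCF-driven proliferation, with SCF at EC90 and a 72 h compound exposure, measured as CellTiter Glo luminescence. Growth is scaled between no-SCF (0%) and untreated (100%) wells.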
Background: Cellular ATP, detected with luciferase, serves as a proxy for viable cell number.

Sequence of Recombinant human c-KIT kinase (P10721 26-976): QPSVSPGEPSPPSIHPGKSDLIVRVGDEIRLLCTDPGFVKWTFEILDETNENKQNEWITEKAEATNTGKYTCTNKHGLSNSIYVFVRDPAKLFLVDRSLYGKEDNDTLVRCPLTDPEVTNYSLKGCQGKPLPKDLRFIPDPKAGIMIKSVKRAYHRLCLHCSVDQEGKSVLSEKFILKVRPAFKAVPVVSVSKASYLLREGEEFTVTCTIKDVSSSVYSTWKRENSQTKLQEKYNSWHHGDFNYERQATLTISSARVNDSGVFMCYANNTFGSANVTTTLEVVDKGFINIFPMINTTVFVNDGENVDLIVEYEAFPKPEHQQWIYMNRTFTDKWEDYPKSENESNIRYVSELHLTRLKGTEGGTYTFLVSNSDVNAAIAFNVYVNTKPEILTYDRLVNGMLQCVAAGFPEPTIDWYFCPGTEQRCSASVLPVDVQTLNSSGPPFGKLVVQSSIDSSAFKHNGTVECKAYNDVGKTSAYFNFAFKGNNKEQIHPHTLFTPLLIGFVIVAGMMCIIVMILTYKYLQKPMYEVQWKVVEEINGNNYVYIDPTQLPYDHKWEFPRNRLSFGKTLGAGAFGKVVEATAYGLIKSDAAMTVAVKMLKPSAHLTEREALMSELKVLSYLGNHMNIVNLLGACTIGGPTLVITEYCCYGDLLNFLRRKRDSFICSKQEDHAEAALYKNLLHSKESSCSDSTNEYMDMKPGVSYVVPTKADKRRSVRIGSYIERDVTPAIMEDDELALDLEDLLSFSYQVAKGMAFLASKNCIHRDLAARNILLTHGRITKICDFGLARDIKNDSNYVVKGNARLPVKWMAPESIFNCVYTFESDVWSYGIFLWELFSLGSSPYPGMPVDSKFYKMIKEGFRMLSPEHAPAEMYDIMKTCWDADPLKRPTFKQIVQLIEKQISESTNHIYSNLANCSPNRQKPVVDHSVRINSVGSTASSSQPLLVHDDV

For `Cc1ccc(-c2noc([C@H]3C[C@@H](OC(F)F)C3(C)C)n2)cc1NC(=O)c1cnn2ccc(N3CC4(CCN(CC(F)(F)F)C4)C3)cc12` [Example 254], in test [1], the IC50 lay in the range of 100 to 1000 nM. This molecule gave an EC50 in test [2] of 100 to 1000 nM.
Regarding `Cc1ccc(-c2noc([C@H]3C[C@@H](OC(F)F)C3(C)C)n2)cc1NC(=O)c1cnn2ccc(N3CC4(CCN(CC(F)F)C4)C3)cc12` [Example 255], in test [1], the half-maximal inhibitory concentration (IC50) is < 100 nM. Moreover, in test [2], the concentration for a half-maximal effect (EC50) is 100 to 1000 nM.
As to `Cc1ccc(-c2noc([C@H]3C[C@@H](OC(F)(F)F)C3)n2)cc1NC(=O)c1cnn2ccc(N3CC4CC(C3)O4)cc12` [Example 256], the half-maximal inhibitory concentration (IC50) in test [1] was < 100 nM. Moreover, the EC50 in test [2] is < 100 nM.
Consider `Cc1ccc(-c2noc([C@H]3C[C@@H](OC(F)F)C3)n2)cc1NC(=O)c1cnn2ccc(N3CC4CC(C3)O4)cc12` [Example 257], for which the IC50 in test [1] was < 100 nM. Also, the EC50 in test [2] was 100 to 1000 nM.
For `Cc1ccc(-c2noc([C@H]3C[C@@H](OC(F)(F)F)C3)n2)cc1NC(=O)c1cnn2ccc(N3CC4(CN(C(=O)OC(C)(C)C)C4)C3)cc12` [Example 258], in that order: 100 to 1000 nM and 100 to 1000 nM.
The corresponding values for `Cc1ccc(-c2noc([C@H]3C[C@@H](OC(F)(F)F)C3)n2)cc1NC(=O)c1cnn2ccc(N3CC4(CN(CC(F)F)C4)C3)cc12` [Example 259] are < 100 nM and < 100 nM.
For `Cc1ccc(-c2noc([C@H]3C[C@@H](OC(F)(F)F)C3)n2)cc1NC(=O)c1cnn2ccc(N3CC4(CNC4)C3)cc12` [Example 260], the 50% inhibitory concentration (IC50) in test [1] was < 100 nM. This molecule also came in with an EC50 in test [2] of 100 to 1000 nM.
As for `Cc1ccc(-c2noc([C@H]3C[C@@H]3F)n2)nc1NC(=O)c1cnn2ccc(N3CC4(COC4)C3)cc12` [Example 261], the IC50 in test [1] lay in the range of 100 to 1000 nM. Besides, in test [2], the EC50 was 100 to 1000 nM.
For `O=C(Nc1cc(-c2noc([C@H]3C[C@@H]3F)n2)ccc1Cl)c1cnn2ccc(N3CC4(COC4)C3)cc12` [Example 262], the IC50 in test [1] is < 100 nM. The EC50 in test [2] is < 100 nM.
`Cc1ccc(-c2noc([C@H]3C[C@@H](OC(F)(F)F)C3)n2)cc1NC(=O)c1cnn2cc(-c3cn(C(F)F)nn3)ccc12` [Example 263]: the IC50 in test [1] is < 100 nM. In addition, in test [2], the EC50 is < 100 nM.
In the case of `O=C(Nc1cc(-c2noc([C@H]3C[C@@H](OC(F)(F)F)C3)n2)ccc1Cl)c1cnn2ccc(N3CC4(COC4)C3)cc12` [Example 264], the IC50 in test [1] was < 100 nM. The concentration for a half-maximal effect (EC50) in test [2] was < 100 nM.
As for `O=C(Nc1cc(-c2noc([C@H]3C[C@@H](OC(F)F)C3)n2)ccc1Cl)c1cnn2ccc(N3CC4(COC4)C3)cc12` [Example 265], the IC50 in test [1] was < 100 nM. Besides, the EC50 in test [2] is < 100 nM.
With `Cc1ccc(-c2noc([C@H]3C[C@@H](OC(F)F)C3)n2)nc1NC(=O)c1cnn2ccc(N3CC4(COC4)C3)cc12` [Example 266], the IC50 in test [1] was in the range of 100 to 1000 nM. The molecule further displayed an EC50 in test [2] of 100 to 1000 nM.
As for `Cc1ccc(-c2noc([C@H]3C[C@@H](OC(F)(F)F)C3)n2)nc1NC(=O)c1cnn2ccc(N3CC4(COC4)C3)cc12` [Example 267], the IC50 in test [1] lay in the range of 100 to 1000 nM. This molecule also registered an EC50 in test [2] of 100 to 1000 nM.
As to `Cc1ncc(-c2noc([C@H]3C[C@@H]3F)n2)cc1NC(=O)c1cnn2ccc(N3CC4(COC4)C3)cc12` [Example 268], the half-maximal inhibitory concentration (IC50) in test [1] was in the range of 100 to 1000 nM. The molecule also showed an EC50 in test [2] of 100 to 1000 nM.
As for `Cc1ncc(-c2noc([C@H]3C[C@@H](OC(F)F)C3)n2)cc1NC(=O)c1cnn2ccc(N3CC4(COC4)C3)cc12` [Example 269], the IC50 in test [1] was in the range of 100 to 1000 nM. Further, in test [2], the EC50 is < 100 nM.
The corresponding values for `Cc1ncc(-c2noc([C@H]3C[C@@H](OC(F)(F)F)C3)n2)cc1NC(=O)c1cnn2ccc(N3CC4(COC4)C3)cc12` [Example 270] are 100 to 1000 nM and < 100 nM.
For `Cc1ccc(-c2noc(C34CC(OC(F)F)(C3)C4)n2)cc1NC(=O)c1cnn2ccc(N3CC4(COC4)C3)cc12` [Example 271], in that order: < 100 nM and < 100 nM.
For `COC12CC(c3nc(-c4ccc(C)c(NC(=O)c5cnn6ccc(N7CC8(COC8)C7)cc56)c4)no3)(C1)C2` [Example 272], in that order: < 100 nM and < 100 nM.
On to `CO[C@H]1C[C@@H](c2nc(-c3ccc(C)c(NC(=O)c4cnn5ccc(N6CC7(COC7)C6)cc45)c3)no2)C1` [Example 273], for which the IC50 in test [1] was 100 to 1000 nM. Besides, in test [2], the EC50 was < 100 nM.
The corresponding values for `CO[C@H]1C[C@H](c2nc(-c3ccc(C)c(NC(=O)c4cnn5ccc(N6CC7(COC7)C6)cc45)c3)no2)C1` [Example 274] are 100 to 1000 nM and < 100 nM.
The corresponding values for `Cc1ccc(-c2noc([C@H]3C[C@@H](OC(F)F)C3)n2)cc1NC(=O)c1cnn2cc(-c3cn(C(F)F)nn3)ccc12` [Example 275] are < 100 nM and < 100 nM.
In the case of `Cc1ccc(-c2noc([C@H]3C[C@H]3C(F)F)n2)cc1NC(=O)c1cnn2ccc(N3CC4(COC4)C3)cc12` [Example 276], the IC50 in test [1] is < 100 nM. Also, the EC50 in test [2] is < 100 nM.
With `Cc1ccc(-c2noc([C@@H]3C[C@@H]3C(F)F)n2)cc1NC(=O)c1cnn2ccc(N3CC4(COC4)C3)cc12` [Example 277], the half-maximal inhibitory concentration (IC50) in test [1] was < 100 nM. Moreover, in test [2], the EC50 is < 100 nM.
For `Cc1ccc(-c2noc([C@H]3C[C@@H]3C(F)F)n2)cc1NC(=O)c1cnn2ccc(N3CC4(COC4)C3)cc12` [Example 278], the IC50 in test [1] was < 100 nM. Besides, the EC50 in test [2] was < 100 nM.
On to `Cc1ccc(-c2noc([C@@H]3C[C@@H]4[C@H](C3)C4(F)F)n2)cc1NC(=O)c1cnn2ccc(N3CC4(COC4)C3)cc12` [Example 279], for which the IC50 in test [1] was < 100 nM. In test [2], the EC50 is < 100 nM.
Regarding `Cc1ccc(-c2noc([C@H]3C[C@@H]4[C@H](C3)C4(F)F)n2)cc1NC(=O)c1cnn2ccc(N3CC4(COC4)C3)cc12` [Example 280], the IC50 in test [1] was < 100 nM. The EC50 in test [2] was < 100 nM.
Turning to `Cc1ccc(-c2noc([C@@H]3C[C@H]3C(F)F)n2)cc1NC(=O)c1cnn2ccc(N3CC4(COC4)C3)cc12` [Example 281-1], the IC50 in test [1] is < 100 nM. Besides, the EC50 in test [2] is < 100 nM.
As to `Cc1ccc(-c2noc(C3CC4(C3)CC(F)(F)C4)n2)cc1NC(=O)c1cnn2ccc(N3CC4(COC4)C3)cc12` [Example 281-2], the IC50 in test [1] is < 100 nM. Also, the EC50 in test [2] is < 100 nM.
`[2H]C([2H])([2H])c1ccc(-c2noc([C@H]3C[C@@H]3F)n2)cc1NC(=O)c1cnn2ccc(N3CC4(COC4)C3)cc12` [Example 281-3]: the IC50 in test [1] is < 100 nM. For the same molecule, in test [2], the EC50 was < 100 nM.
For the molecule `[2H]C([2H])([2H])c1ccc(-c2noc([C@H]3C[C@@H](OC(F)F)C3)n2)cc1NC(=O)c1cnn2ccc(N3CC4(COC4)C3)cc12` [Example 281-4], the IC50 in test [1] was < 100 nM. Also, the EC50 in test [2] is < 100 nM.
For the molecule `[2H]C([2H])([2H])c1ccc(-c2noc([C@H]3C[C@@H]3C(F)F)n2)cc1NC(=O)c1cnn2ccc(N3CC4(COC4)C3)cc12` [Example 281-5], in test [1], the IC50 was < 100 nM. In test [2], the EC50 is < 100 nM.
For the molecule `Cc1ccc(-c2noc(C34COC(C)(C3)C4)n2)cc1NC(=O)c1cnn2ccc(N3CC4(COC4)C3)cc12` [Example 281-6], the IC50 in test [1] fell in the range of 100 to 1000 nM. In addition, the EC50 in test [2] was < 100 nM.
For `Cc1ccc(-c2noc([C@H]3CC3(F)F)n2)cc1NC(=O)c1cnn2ccc(N3CC4(COC4)C3)cc12` [Example 281-7], in that order: 100 to 1000 nM and < 100 nM.
For `Cc1ccc(-c2noc(C3CN(CC(F)(F)F)C3)n2)cc1NC(=O)c1cnn2ccc(N3CC4(COC4)C3)cc12` [Example 281-8], in that order: < 100 nM and < 100 nM.
As to `Cc1ncc(-c2noc([C@H]3CN(CC(F)(F)F)[C@@H]3C)n2)cc1NC(=O)c1cnn2ccc(N3CC4(C3)CC(O)(C(F)F)C4)cc12` [Example 281-9], in test [1], the IC50 lay in the range of 100 to 1000 nM. This molecule yielded a half-maximal effective concentration (EC50) in test [2] of 100 to 1000 nM.
As to `Cc1ncc(-c2noc([C@H]3CN(C(=O)C(C)(F)F)[C@@H]3C)n2)cc1NC(=O)c1cnn2ccc(N3CC4(C3)CC(O)(C(F)F)C4)cc12` [Example 281-10], the IC50 in test [1] is 100 to 1000 nM. For the same molecule, the EC50 in test [2] was 100 to 1000 nM.
`Cc1ncc(-c2noc([C@@H]3CN(C(=O)C4(F)CC4)[C@H]3C)n2)cc1NC(=O)c1cnn2ccc(N3CC4(C3)CC(O)(C(F)F)C4)cc12` [Example 281-11]: the IC50 in test [1] lay in the range of 100 to 1000 nM. The EC50 in test [2] is 100 to 1000 nM.
Regarding `Cc1ncc(-c2noc([C@@H]3CN(CC(F)(F)F)[C@H]3C)n2)cc1NC(=O)c1cnn2ccc(N3CC4(C3)CC(O)(C(F)F)C4)cc12` [Example 281-12], the IC50 in test [1] is < 100 nM. Further, the EC50 in test [2] was in the range of 100 to 1000 nM.
`Cc1ncc(-c2noc([C@@H]3CN(C(=O)C(C)(F)F)[C@H]3C)n2)cc1NC(=O)c1cnn2ccc(N3CC4(C3)CC(O)(C(F)F)C4)cc12` [Example 281-13]: the IC50 in test [1] lay in the range of 100 to 1000 nM. Besides, in test [2], the EC50 fell in the range of 100 to 1000 nM.
In the case of `COC(=O)N1C[C@H](c2nc(-c3cnc(C)c(NC(=O)c4cnn5ccc(N6CC7(C6)CC(O)(C(F)F)C7)cc45)c3)no2)[C@H]1C` [Example 281-14], the IC50 in test [1] lay in the range of 100 to 1000 nM. In test [2], this molecule registered an EC50 of 100 to 1000 nM.
`Cc1ncc(-c2noc([C@H]3CN(C(=O)C4(F)CC4)[C@@H]3C)n2)cc1NC(=O)c1cnn2ccc(N3CC4(C3)CC(O)(C(F)F)C4)cc12` [Example 281-15]: the IC50 in test [1] is 100 to 1000 nM. The EC50 in test [2] is 100 to 1000 nM.
For `Cc1ncc(-c2noc([C@H]3CC34CC4)n2)cc1NC(=O)c1cnn2ccc(N3CC4(C3)CC(O)(C(F)F)C4)cc12` [Example 281-16], the half-inhibitory concentration (IC50) in test [1] was < 100 nM. Further, the EC50 in test [2] was < 100 nM.
For the molecule `COC(=O)N1C[C@@H](c2nc(-c3cnc(C)c(NC(=O)c4cnn5ccc(N6CC7(C6)CC(O)(C(F)F)C7)cc45)c3)no2)[C@@H]1C` [Example 281-17], the IC50 in test [1] lay within 100 to 1000 nM. Besides, the EC50 in test [2] is < 100 nM.
